Here are results for 5 compounds from ChEMBL document CHEMBL2046326, “Selective hydroboration of dieneamines. Formation of hydroxyalkylphenothiazines as MDR modulators” (Bioorg Med Chem, 2012).

The source made the active and inactive calls. No cut-off for these calls is given here.

For assay [1], the system named is Hepatocyte. The following applies: Rattus norvegicus, 10 to 50 uM.
Assay [2] has as its system Hepatocyte. Description: Inhibition of P-glycoprotein in rat primary hepatocytes assessed as increase in intracellular rhodamine 123 accumulation at 100 uM after 3 hrs. The assay is classed as cell-based.
The test system of assay [3] is Hepatocyte. Description: Inhibition of P-glycoprotein in rat primary hepatocytes assessed as increase in intracellular rhodamine 123 accumulation at 100 uM after 3 hrs relative to control. In kind it is cell-based.
Assay [4] has as its system Hepatocyte. The assay can be described thus: Inhibition of P-glycoprotein in rat primary hepatocytes assessed as increase in intracellular rhodamine 123 accumulation after 3 hrs. In kind it is cell-based.

Turning to `COc1ccc(CCN(C)CCCC(C#N)(c2ccc(OC)c(OC)c2)C(C)C)cc1OC` (stereo not given), in the assay with Hepatocyte [1], the inhibition (usually the relative decrease from the control value, in per cent) was “Active”.

On to `COc1ccc(-n2nnc(CCCN3c4ccccc4Sc4ccccc43)n2)cc1`, for which, in the assay with Hepatocyte [2], the inhibition result was “inactive”.

As for `COc1ccc(-n2nnc(CCCCN3c4ccccc4Sc4ccccc43)n2)cc1`, the inhibition with Hepatocyte [3] is 20%.

With `COc1ccc(-n2nnc(/C=C\C=C\N3c4ccccc4Sc4ccccc43)n2)cc1`, the inhibition result in the assay with Hepatocyte [2] is “inactive”.

In the case of `COc1ccc(-n2nnc(CCC(O)CN3c4ccccc4Sc4ccccc43)n2)cc1` (stereo not given), the inhibition entry in the assay on Hepatocyte [4] was “Dose-dependent effect”.
